Assays:
AGEs = details: studies in rats, beagles (oral) and mice, CN200610002391.6; cited from earlier work
[1] = tested on: NaCl treated diabetic rats modeled with heart failure; test: Chronic heart failure, first batch, ultrasonic cardiogram evaluation; assay type: in vivo, rat; details: 10th week of administration; valsartan 10 mg/kg, compound A 18 mg/kg ig
Protocol: The pharmacodynamic evaluation was conducted by using a noninvasive ultrasonic cardiogram method.
Evaluation indexes: (1) morphology indexes: left ventricular posterior wall dimensions (LVPWd), left ventricular diastasis internal diameter (LVDd), end systolic diameter (LVDs); (2) functional indexes: ejection fraction (EF), shortening fraction (FS), ventricular early blood flow filling rate (E), atrial filling rate (A) and ratio of E/A; Doppler tissue image; at cardiac apical four chamber view, the valve ring of anterior mitral valve was used as sampling point, peak early diastolic velocity (Ea peak), peak late diastolic velocity (Aa peak), and Ea/Aa ratio reflected the systolic and diastolic motion of the whole left ventricle.
SPSS statistic software was used to analyze and treat data, and all data were expressed in mean±standard deviation (Mean±SD).

Compound	breaking effect on AGEs (AGEs)	LVDd and LVDs vs model [1]	PWd vs model [1]
Cc1csc[n+]1CC(=O)OCc1ccccc1.[Br-] [3-benzyloxycarbonylmethyl-4-methyl-thiazole-3-bromide]	excellent breaking effect on AGEs	–	–
CCCCC(=O)N(Cc1ccc(-c2ccccc2-c2nnn[nH]2)cc1)[C@H](C(=O)O)C(C)C [valsartan, reference compound]	–	slight decrease	slight increase
